Measured values taken from patent publication US20240299376A1, “METHOD OF TREATING A CONDITION USING A […] EFFECTIVE DOSE OF 1-(1-OXO-1,2-DIHYDROISOQUINOLIN-5-YL)-5-(TRIFLUOROMETHYL)-N-(2-(TRIFLUOROMETHYL)PYRIDIN-4-YL)-1H-PYRAZOLE-4-CARBOXAMIDE” (Janssen Pharmaceutica NV, priority 2021, published 2024).

How the values were obtained:
[1] = Single oral dose plasma PK in fasted dogs; format: in vivo, dog; details: for bioavailability / AUC(0-inf) / Cmax / Tmax / AUC(0-t) / half-life: beagle, dog, plasma
Excerpt: With the suspension formulation the double-peak phenomenon is even more pronounced.
As observed in rats, dose escalation in dogs resulting in proportional or dose-related exposure with the PEG400 solution was unsuccessful in identifying a vehicle suitable for toxicology studies.

[2] = Single IV dose plasma PK; format: in vivo, monkey
Procedure: Single intravenous (IV) dose PK was conducted in mice (two strains), rats, monkeys, and dogs at a dose of 1 mg/kg in 70% PEG400 (PEG400/water 70:30) by bolus injection. The time course for plasma sample was optimized to fully characterize the disposition profile in each species. PK analysis was by non-compartmental method.

[3] = Serum concentration after 28 days of oral dosing in male OCI-LY3 tumor-bearing NSG mice; format: in vivo; details: mouse, mean; for concentration at 0.25 h: 0.25 h post last dose
[4] = system: human cytokine IL-10 in serum; test: Serum IL-10 (MSD assay) after a single dose in OCI-LY10 tumor-bearing NSG mice; format: in vivo
Procedure: NF-κB signaling regulates the secretion of multiple cytokines, including interleukin-10 (IL-10). MALT1 inhibition results in a decrease of IL-10 transcription and translation as well as secretion. Levels of the human cytokine IL-10 were measured in the serum of OCI-LY3 or OCI-LY10 ABC-DLBCL tumor bearing mice using a Mesoscale Discovery assay (MSD). 25 μL of mouse serum was transferred to an MSD plate (V-Plex Proinflammation Panel I (human) kit) and incubated together with 25 μL diluent 2 (MSD; R51BB-3) for 2 hours at RT followed by a 2-hour incubation with IL-10 antibody solution. Plates were read on a SECTOR imager. Serum human IL-10 levels were correlated to serum compound concentration.
Serum samples were collected at 2, 12, and 24 hours post dose and tumor samples were collected 24 hours post dose. Human IL-10 was measured in serum samples using a Mesoscale assay.
Serum IL-10 levels are graphed as the mean+/−standard deviation.
For PD, when tumors reached 550-750 mm^3 animals were assigned randomly into the treatment groups and treated as presented in Table 5. Dose volumes were adjusted to individual body weights at 10 mL/kg. For both PD studies, serum was collected at 2 and 12 hours post treatment from the retro-orbital sinus. At 24 hours post treatment, animals were bled via decapitation and tumors were excised, weighed, and divided for bioanalysis and ex vivo PD analysis. Blood was centrifuged at 10,000 rpm and serum divided for bioanalysis and PD analysis.

[5] = system: IL-6 secretion by OCI-LY3 ABC-DLBCL cells; test: IL-6 secretion assay (MesoScale Discovery); format: cell-based; details: Homo sapiens; supernatants of OCI-LY3 cells, 16 independent experiments
Procedure: NF-κB signaling regulates the secretion of multiple cytokines, including interleukin (IL)-6 and IL-10. Libermann T A et al. Mol Cell Biol. 1990; 10(6):3155-3162; and Cao S, et al. J Biol Chem. 2006; 281(36):26041-26050. Secretion of the cytokines IL-6 and IL-10 by OCI-LY3 ABC-DLBCL cells was measured using a MesoScale Discovery (MSD) assay.

[6] = female, po, 100 mg/kg, 2F, 100 mg/kg PO, 100% PEG400 solution, Study 7
[7] = female, po, 280 mg/kg, 2F, 280 mg/kg PO, 100% PEG400 solution, Study 7
[8] = male, po, 5 mg/kg, 3M (N = 2 used), 5 mg/kg PO, 100% PEG400 solution, Study 1
[9] = male, po, 5 mg/kg, 3M, 5 mg/kg PO, 0.5% HPMC suspension, Study 4
[10] = male, po, 5 mg/kg, 3M, 5 mg/kg PO, -ZAF salt nanosuspension (HPMC:DOSS suspension), Study 5
[11] = male, po, 20 mg/kg, 3M, 20 mg/kg PO, 0.5% HPMC suspension, Study 2
[12] = male, po, 20 mg/kg, 3M, 20 mg/kg PO, 0.5% HPMC suspension, Study 4
[13] = male, po, 20 mg/kg, 3M, 20 mg/kg PO, 100% PEG400 solution, Study 3
[14] = male, po, 20 mg/kg, 3M, 20 mg/kg PO, -ZAF salt nanosuspension (HPMC:DOSS suspension), Study 5
[15] = male, po, 22.5 mg/kg, 3M, 22.5 mg/kg PO, PEG400/PVP VA 90:10 solution, Study 6
[16] = male, plasma, Monkey, cynomolgus, 3M, 1 mg/kg IV in 70% PEG400, mean

## O=C(Nc1ccnc(C(F)(F)F)c1)c1cnn(-c2cccc3c(=O)[nH]ccc23)c1C(F)(F)F [Compound A, 1-(1-oxo-1,2-dihydroisoquinolin-5-yl)-5-(trifluoromethyl)-N-[2-(trifluoromethyl)pyridin-4-yl]-1H-pyrazole-4-carboxamide]
[1]; Study 7, doses of 100, 280, and 560 mg/kg, PEG400 solution
  increase of Cmax or AUC with dose: ≤ 25%
[1]; po, 5 mg/kg, 5 mg/kg PO, -ZAF salt nanosuspension (HPMC:DOSS suspension), Study 5
  bioavailability: 12 to 69%
[1]; po, 20 mg/kg, 20 mg/kg PO, 0.5% HPMC suspension, Study 4
  bioavailability: 7 to 89%
[1]; po, 20 mg/kg, 20 mg/kg PO, -ZAF salt nanosuspension (HPMC:DOSS suspension), Study 5
  bioavailability: 6.7%
[1]; po, 22.5 mg/kg, 22.5 mg/kg PO, PEG400/PVP VA 90:10 solution, Study 6
  bioavailability: > 100%
[1]; po, 560 mg/kg, 560 mg/kg PO, 100% PEG400 solution, Study 7, N = 1
  AUC(0-inf): 1760 µg·h/mL
[1]; [6]
  AUC(0-inf): 1360 µg·h/mL
  Cmax: 24300 ng/mL
  Tmax: 15.5 h
[1]; female, po, 100 mg/kg, 2F, 100 mg/kg PO, 100% PEG400 solution, Study 7, Tlast = 96 hours
  AUC(0-t): 1250 µg·h/mL
[1]; [7]
  AUC(0-inf): 1680 µg·h/mL
  Cmax: 30600 ng/mL
[1]; female, po, 280 mg/kg, 2F, 280 mg/kg PO, 100% PEG400 solution, Study 7, Tlast = 96 hours
  AUC(0-t): 1510 µg·h/mL
[1]; female, po, 280 mg/kg, 2F, 280 mg/kg PO, 100% PEG400 solution, Study 7, median
  Tmax: 24 h
[1]; female, po, 280 mg/kg, 2F, 280 mg/kg PO, PEG400/PVP VA 90:10 solution, Study 7
  Cmax: 106000 ng/mL
[1]; female, po, 280 mg/kg, 2F, 280 mg/kg PO, PEG400/PVP VA 90:10 solution, Study 7, Tlast = 96 hours
  AUC(0-t): 1970 µg·h/mL
[1]; female, po, 280 mg/kg, 2F, 280 mg/kg PO, PEG400/PVP VA 90:10 solution, Study 7, median
  Tmax: 24 h
[1]; female, po, 480 mg/kg, 2F, 480 mg/kg PO, PEG400/PVP VA 90:10 solution, Study 7
  Cmax: 76600 ng/mL
[1]; female, po, 480 mg/kg, 2F, 480 mg/kg PO, PEG400/PVP VA 90:10 solution, Study 7, Tlast = 96 hours
  AUC(0-t): 1510 µg·h/mL
[1]; female, po, 480 mg/kg, 2F, 480 mg/kg PO, PEG400/PVP VA 90:10 solution, Study 7, median
  Tmax: 27.5 h
[1]; female, po, 560 mg/kg, 2F, 560 mg/kg PO, 100% PEG400 solution, Study 7
  Cmax: 31800 ng/mL
[1]; female, po, 560 mg/kg, 2F, 560 mg/kg PO, 100% PEG400 solution, Study 7, Tlast = 96 hours
  AUC(0-t): 2010 µg·h/mL
[1]; female, po, 560 mg/kg, 2F, 560 mg/kg PO, 100% PEG400 solution, Study 7, median
  Tmax: 24 h
[1]; from 22.5 to 280 mg/kg, PVP VA in PEG400 solution
  increase in Cmax and AUC: approximately 5 fold
[1]; male, oral, 5 mg/kg, 5 mg/kg PO, 100% PEG400 solution, Study 1, calculated using the IV data from Study 1
  bioavailability: > 100%
[1]; male, po, 5 mg/kg, 5 mg/kg PO, 0.5% HPMC suspension, Study 4
  bioavailability: 14 to 66%
[1]; [8]
  AUC(0-inf): 146 µg·h/mL
  Cmax: 6150 ng/mL
  Tmax: 2 h
  half-life: 17.3 h
[1]; male, po, 5 mg/kg, 3M (N = 2 used), 5 mg/kg PO, 100% PEG400 solution, Study 1, Tlast = 48 hours
  AUC(0-t): 143 µg·h/mL
[1]; [9]
  AUC(0-inf): 30.7 µg·h/mL
  AUC(0-t): 43.7 µg·h/mL
  Cmax: 2030 ng/mL
  Tmax: 9 h
  half-life: 21.8 h
[1]; [10]
  AUC(0-inf): 26.4 µg·h/mL
  AUC(0-t): 43.7 µg·h/mL
  Cmax: 1450 ng/mL
  Tmax: 9.33 h
  half-life: 11.5 h
[1]; male, po, 20 mg/kg, 20 mg/kg PO, 0.5% HPMC suspension, Study 2, N = 1 animal with low exposure
  AUC(0-inf): 15.6 µg·h/mL
[1]; male, po, 20 mg/kg, 20 mg/kg PO, 100% PEG400 solution, Study 3
  bioavailability: 33 to 72%
[1]; [11]
  Cmax: 4010 ng/mL
  Tmax: 16.7 h
  half-life: 17.8 h
[1]; male, po, 20 mg/kg, 3M, 20 mg/kg PO, 0.5% HPMC suspension, Study 2, Tlast = 72 hours
  AUC(0-t): 153 µg·h/mL
[1]; [12]
  AUC(0-inf): 31.8 µg·h/mL
  AUC(0-t): 160 µg·h/mL
  Cmax: 4080 ng/mL
  Tmax: 16.7 h
  half-life: 14.3 h
[1]; [13]
  AUC(0-inf): 224 µg·h/mL
  Cmax: 5770 ng/mL
  Tmax: 8.33 h
  half-life: 18.6 h
[1]; male, po, 20 mg/kg, 3M, 20 mg/kg PO, 100% PEG400 solution, Study 3, Tlast = 96 hours
  AUC(0-t): 215 µg·h/mL
[1]; [14]
  AUC(0-inf): 87 µg·h/mL
  AUC(0-t): 111 µg·h/mL
  Cmax: 3510 ng/mL
  Tmax: 9 h
  half-life: 16.6 h
[1]; [15]
  AUC(0-inf): 757 µg·h/mL
  Cmax: 21000 ng/mL
  Tmax: 1.25 h
  half-life: 14.1 h
[1]; male, po, 22.5 mg/kg, 3M, 22.5 mg/kg PO, PEG400/PVP VA 90:10 solution, Study 6, Tlast = 96 hours
  AUC(0-t): 741 µg·h/mL
[2]; [16]
  AUC(0-inf): 16.4 µg·h/mL
  C0: 1840 ng/mL
  clearance: 1.12 mL/min/kg
  half-life: 11.9 h
[2]; male, plasma, Monkey, cynomolgus, 3M, 1 mg/kg IV in 70% PEG400, mean, read-out: Vdss
  Vd: 0.748 L/kg
[2]; monkey, LBF 43.6 mL/min/kg
  CL as fraction of liver blood flow (LBF): 1.7%
[3]; 1 mg/kg BID PO 28 days
  concentration at 0.25 h: 323 ng/mL
[3]; 60 mg/kg QD PO 28 days
  concentration at 0.25 h: 6990 ng/mL
[3]; 60 mg/kg QD PO 28 days, 8 h post last dose
  concentration at 8 h: 10600 ng/mL
[4]; 100 mg/kg plus precipitation inhibitor PVP/VA64, 24 hours
  effect of adding precipitation inhibitor on exposure and PD: increased exposures correlating to increased PD shutdown at 24 hours
[4]; single oral dose 3 mg/kg, 12 hours post dose
  inhibition or reduction of serum IL-10: intermediate inhibition or reduction
[4]; single oral dose 10 mg/kg, 12 hours post dose
  inhibition or reduction of serum IL-10: strong inhibition or reduction
[4]; single oral dose 30 mg/kg, 12 hours post dose
  inhibition or reduction of serum IL-10: completely inhibited or reduced serum IL-10 levels
[4]; single oral dose 100 mg/kg, 12 hours post dose
  inhibition or reduction of serum IL-10: completely inhibited or reduced serum IL-10 levels
[4]; single oral dose, 24 hours post dose
  inhibition or reduction of serum IL-10: rebounded at 24 hours post dose
[5]
  IC50: 114 ± 41 nM
